COc1cc2c(cc1OC)C(=O)C(CC1CCN(Cc3ccccc3)CC1)C2.Cl (stereo not drawn)
solubility (mole fraction)
Settings	in DMF	in ethanol	in methanol	in n-propanol
278.15 K	0.00119	0.000291	0.00167	0.000112
283.15 K	0.00135	0.000379	0.00222	0.000153
288.15 K	0.00152	0.000484	0.00287	0.000214
293.15 K	0.00173	0.000609	0.00375	0.000301
298.15 K	0.00196	0.000768	0.00483	0.000404
303.15 K	0.00222	0.000951	0.00636	0.000543
308.15 K	0.00251	0.00118	0.00803	0.000743
313.15 K	0.00286	0.00145	0.0105	0.00102
318.15 K	0.00325	0.00177	0.0133	0.00133
323.15 K	0.00368	0.00215	0.017	0.0018
328.15 K	0.00418	0.00259	0.0216	0.00241
333.15 K	0.00476	0.00308	0.0277	0.00321

From BigSolDB 2.1
